Data reported in US20190127366A1 (LifeSci Pharmaceuticals, Inc., priority 2015, published 2019).

Target: T1, human complement factor D (Homo sapiens, UniProt P00746)
T1 construct: purchased R&D Systems 1824-SE
Experiment: In vitro enzyme inhibition (Z-Lys-SBzl/DTNB absorbance assay)
Format: biochemical
Conditions: Complement Factor D (R&D Systems), substrate Z-Lys-SBzl, A405 nm; read-out: CFD IC50
Procedure: The ability of the compounds disclosed herein to inhibit human complement factor D inhibitory activity was quantified according to the 12-step protocol provided below. • 1. Prepare assay buffer: 50 mM Tris/HCl, pH 7.5, 1 M NaCl. • 2. Dilute 10 mM Complement Factor D inhibitor Nafamostat Mesilate (Selleckchem, Catalog #S1386) solution from 10000 μM to 9.77 μM in 100% DMSO, 8 concentrations. Then dilute the serial concentrations of Nafamostat Mesilate 20-fold in assay buffer. • 3. Add 10 μl diluted Nafamostat Mesilate duplicated into each of the inhibitor control well of a 96-well plate (Corning, Catalog #3599). Final concentrations were 50 μM, 25 μM, 12.5 μM, 6.25 μM, 3.125 μM, 0.781 μM, 0.195 μM and 0.049 μM. 0.5% DMSO was in each well finally. • 4. Dilute 20 mM test compounds from 10000 μM to […] in 100% DMSO, 6-fold dilution, 8 concentrations. Then dilute the serial concentrations of test compounds 20-fold in assay buffer. • 5. Add 10 μl diluted test compounds duplicated into the 96-well plate. Final concentrations were 50 μM, 8.33 μM, 1.39 μM, 0.23 μM, 0.0386 μM, 0.0064 μM, 0.0011 μM and 0.0002 μM. 0.5% DMSO was in each well finally. • 6. Dilute 20 mM substrate Z-Lys-SBzl (Bachem, Cat #M-1300) to 200 μM in assay buffer with 200 μM DTNB(Sigma, Catalog #D8130). • 7. Dilute 738 ng/μL Complement Factor D (R&D Systems, Catalog #1824-SE) to 6.25 ng/μL in assay buffer. Add 40 μl diluted Complement Factor D in the 96-well plate. • 8. Positive control well contains Complement Factor D without test compound. Negative control well contains neither Complement Factor D nor test compound. Using assay buffer, bring the total volume of all controls to 50 μl. • 9. Pre-incubate the plate for 5 min at room temperature. • 10. Add 50 μl of diluted substrate/DTNB mixture into each well. Mix the reagents completely by shaking the plate gently for 30 sec. • 11. For kinetic reading: Immediately start measuring absorbance (A405 nm) continuously and record data every 30sec for 60 min. • 12. Data analysis • Inhibition activity of compound was evaluated by IC50. IC50 was calculated according the dose-response curve of compound fitted using GraphPadPrism with “log(inhibitor)-response (variable slope)” equation. • % inhibition was calculated by using following equation:
[formula] • Mean(NC): The average value of the negative control wells' A405 nm values. • Mean(PC): The average value of the positive control wells' A405 nm values.
The ability of the compounds in Table 2 to inhibit human complement factor D inhibitory activity was determined.

T1 sequence (P00746 26-253): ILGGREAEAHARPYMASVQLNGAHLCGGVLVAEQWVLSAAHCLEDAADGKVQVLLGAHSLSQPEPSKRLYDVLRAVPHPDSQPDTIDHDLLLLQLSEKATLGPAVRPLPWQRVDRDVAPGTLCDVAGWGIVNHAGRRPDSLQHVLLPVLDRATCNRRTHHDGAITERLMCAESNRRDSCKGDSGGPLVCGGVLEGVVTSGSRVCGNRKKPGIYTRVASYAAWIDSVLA

| SMILES | IC50 |
| --- | --- |
| NC(=O)c1nn(CC(=O)N2[C@@H]3CC[C@@H](C3)[C@H]2C(=O)NCc2cccc(Cl)c2F)c2cnccc12 [Example 39, 1-(2-((1R,3S,4S)-3-((3-chloro-2-fluorobenzyl)carbamoyl)-2-azabicyclo[2.2.1]heptan-2-yl)-2-oxoethyl)-1H-pyrazolo[3,4-c]pyridine-3-carboxamide] | 100 to 1000 nM |
| NC(=O)c1nn(CC(=O)N2[C@H]3CC[C@H](C3)[C@H]2C(=O)Nc2cccc(Cl)n2)c2ccc(Cl)cc12 [Example 16, 5-chloro-1-(2-((1S,3S,4R)-3-((6-chloropyridin-2-yl)carbamoyl)-2-azabicyclo[2.2.1]heptan-2-yl)-2-oxoethyl)-1H-indazole-3-carboxamide] | 1000 to 10000 nM |
| COC(=O)CC(NC(=O)[C@@H]1[C@H]2CC[C@H](C2)N1C(=O)Cn1nc(C(N)=O)c2ccccc21)c1cccc(Cl)c1F (stereo partly drawn) [Example 142, methyl 3-((1R,3S,4S)-2-(2-(3-carbamoyl-1H-indazol-1-yl)acetyl)-2-azabicyclo[2.2.1]heptane-3-carboxamido)-3-(3-chloro-2-fluorophenyl)propanoate] | 1000 to 10000 nM |
| NC(=O)c1nn(CC(=O)N2[C@@H]3CC[C@@H](C3)[C@H]2C(=O)Nc2cccc(-c3ccccc3Cl)n2)c2ccccc12 [Example 44, 1-(2-((1R,3S,4S)-3-((6-(2-chlorophenyl)pyridin-2-yl)carbamoyl)-2-azabicyclo[2.2.1]heptan-2-yl)-2-oxoethyl)-1H-indazole-3-carboxamide] | 100 to 1000 nM |
| COC(=O)c1ccc(NC(=O)[C@@H]2[C@H]3CC[C@H](C3)N2C(=O)Cn2nc(C(N)=O)c3ccccc32)nc1Cl [Example 107, Methyl 6-((1R,3S,4S)-2-(2-(3-carbamoyl-1H-indazol-1-yl)acetyl)-2-azabicyclo[2.2.1]heptane-3-carboxamido)-2-chloronicotinate] | 1000 to 10000 nM |
| NC(=O)c1nn(CC(=O)N2[C@@H]3CC[C@@H](C3)[C@H]2C(=O)Nc2cccc(OC(F)(F)F)c2F)c2cnccc12 [Example 42, 1-(2-((1R,3S,4S)-3-((2-fluoro-3-(trifluoromethoxy)phenyl)carbamoyl)-2-azabicyclo[2.2.1]heptan-2-yl)-2-oxoethyl)-1H-pyrazolo[3,4-c]pyridine-3-carboxamide] | 1000 to 10000 nM |
| NC(=O)c1cc(Cl)nc(NC(=O)[C@@H]2[C@H]3CC[C@H](C3)N2C(=O)Cn2nc(C(N)=O)c3ccccc32)c1 [Example 106, 1-(2-((1R,3S,4S)-3-((4-carbamoyl-6-chloropyridin-2-yl)carbamoyl)-2-azabicyclo[2.2.1]heptan-2-yl)-2-oxoethyl)-1H-indazole-3-carboxamide] | 100 to 1000 nM |
| Cc1cc(C)nc(NC(=O)[C@@H]2[C@H]3CC[C@H](C3)N2C(=O)Cn2nc(C(N)=O)c3ccccc32)c1 [Example 67, 1-(2-((1R,3S,4S)-3-((4,6-dimethylpyridin-2-yl)carbamoyl)-2-azabicyclo[2.2.1]heptan-2-yl)-2-oxoethyl)-1H-indazole-3-carboxamide 2,2,2-trifluoroacetate] | > 10000 nM |
| NC(=O)c1nn(CC(=O)N2[C@@H]3CCC(C3)[C@H]2C(=O)Nc2cccc(Cl)n2)c2ccc(Cl)cc12 [Example 12, 5-chloro-1-(2-((1R,3S)-3-((6-chloropyridin-2-yl)carbamoyl)-2-azabicyclo[2.2.1]heptan-2-yl)-2-oxoethyl)-1H-indazole-3-carboxamide] | 1000 to 10000 nM |
| NC(=O)c1nn(CC(=O)N2[C@@H]3CC[C@@H](C3)[C@H]2C(=O)NCc2cc(F)cc(Cl)c2)c2ccccc12 [Example 64, 1-(2-((1R,3S,4S)-3-((3-chloro-5-fluorobenzyl)carbamoyl)-2-azabicyclo[2.2.1]heptan-2-yl)-2-oxoethyl)-1H-indazole-3-carboxamide 2,2,2-trifluoroacetate] | 100 to 1000 nM |
| NC(=O)c1nn(CC(=O)N2[C@@H]3CC[C@@H](C3)[C@H]2C(=O)Nc2cccc(Cl)n2)c2ccncc12 [Example 95, 1-(2-((1R,3S,4S)-3-((6-chloropyridin-2-yl)carbamoyl)-2-azabicyclo[2.2.1]heptan-2-yl)-2-oxoethyl)-1H-pyrazolo[4,3-c]pyridine-3-carboxamide] | 100 to 1000 nM |
| NC(=O)c1nn(CC(=O)N2[C@H](C(=O)Nc3cccc(Cl)n3)C[C@@H]3CCC[C@@H]32)c2cnccc12 [Example 177, 1-(2-((2S,3aS,6aS)-2-((6-chloropyridin-2-yl)carbamoyl)hexahydrocyclopenta[b]pyrrol-1(2H)-yl)-2-oxoethyl)-1H-pyrazolo[3,4-c]pyridine-3-carboxamide] | 100 to 1000 nM |
| NC(=O)c1nn(CC(=O)N2[C@@H]3CC[C@@H](C3)[C@H]2C(=O)Nc2ccnc(Cl)c2)c2ccccc12 [Example 57, 1-(2-((1R,3S,4S)-3-((2-chloropyridin-4-yl)carbamoyl)-2-azabicyclo[2.2.1]heptan-2-yl)-2-oxoethyl)-1H-indazole-3-carboxamide] | 1000 to 10000 nM |
| CNC(=O)c1nn(CC(=O)N2[C@@H]3CC[C@@H](C3)[C@H]2C(=O)Nc2cccc(Cl)n2)c2ccccc12 [Example 88, 1-(2-((1R,3S,4S)-3-((6-chloropyridin-2-yl)carbamoyl)-2-azabicyclo[2.2.1]heptan-2-yl)-2-oxoethyl)-N-methyl-1H-indazole-3-carboxamide] | 1000 to 10000 nM |
| NC(=O)n1nc(CC(=O)N2[C@@H]3CC[C@@H](C3)[C@H]2C(=O)NCc2cccc(Cl)c2F)c2ccccc21 [Example 100, 3-(2-((1R,3S,4S)-3-((3-chloro-2-fluorobenzyl)carbamoyl)-2-azabicyclo[2.2.1]heptan-2-yl)-2-oxoethyl)-1H-indazole-1-carboxamide] | 100 to 1000 nM |
| NC(=O)c1nn(CC(=O)N2[C@@H]3CC[C@@H](C3)[C@H]2C(=O)Nc2ncccc2Cl)c2ccccc12 [Example 54, 1-(2-((1R,3S,4S)-3-((3-chloropyridin-2-yl)carbamoyl)-2-azabicyclo[2.2.1]heptan-2-yl)-2-oxoethyl)-1H-indazole-3-carboxamide] | > 10000 nM |
| NC(=O)c1nn(CC(=O)N2[C@@H]3CC[C@@H](C3)[C@H]2C(=O)NCc2cnc3[nH]cc(Cl)c3c2)c2ccccc12 [Example 48, 1-(2-((1R,3S,4S)-3-(((3-chloro-1H-pyrrolo[2,3-b]pyridin-5-yl)methyl)carbamoyl)-2-azabicyclo[2.2.1]heptan-2-yl)-2-oxoethyl)-1H-indazole-3-carboxamide] | > 10000 nM |
| N#CC(NC(=O)[C@@H]1[C@H]2CC[C@H](C2)N1C(=O)Cn1nc(C(N)=O)c2ccccc21)c1cccc(Cl)c1F (stereo partly drawn) [Example 141, 1-(2-((1R,3S,4S)-3-(((3-chloro-2-fluorophenyl)(cyano)methyl)carbamoyl)-2-azabicyclo[2.2.1]heptan-2-yl)-2-oxoethyl)-1H-indazole-3-carboxamide] | 100 to 1000 nM |
| NC(=O)c1nn(CC(=O)N2[C@H](C(=O)Nc3cncc(Cl)c3)C[C@@H]3CCC[C@@H]32)c2ccccc12 [Example 161, 1-(2-((2S,3aS,6aS)-2-((5-chloropyridin-3-yl)carbamoyl)hexahydrocyclopenta[b]pyrrol-1(2H)-yl)-2-oxoethyl)-1H-indazole-3-carboxamide] | 1000 to 10000 nM |
| NC(=O)c1nn(CC(=O)N2[C@@H]3CC[C@@H](C3)[C@H]2C(=O)Nc2cccc(Cl)n2)c2ccc([N+](=O)[O-])cc12 [Example 73, 1-(2-((1R,3S,4S)-3-((6-chloropyridin-2-yl)carbamoyl)-2-azabicyclo[2.2.1]heptan-2-yl)-2-oxoethyl)-5-nitro-1H-indazole-3-carboxamide] | 1000 to 10000 nM |
| NC(=O)c1nn(CC(=O)N2[C@@H]3CC[C@@H](C3)[C@H]2C(=O)NCc2ccc(Cl)c(Cl)c2)c2ccccc12 [Example 72, 1-(2-((1R,3S,4S)-3-((3,4-dichlorobenzyl)carbamoyl)-2-azabicyclo[2.2.1]heptan-2-yl)-2-oxoethyl)-1H-indazole-3-carboxamide] | 1000 to 10000 nM |
| NC(=O)c1nn(CC(=O)N2[C@@H]3CC[C@@H](C3)[C@H]2C(=O)NCc2ccc(F)c(Cl)c2)c2ccccc12 [Example 63, 1-(2-((1R,3S,4S)-3-((3-chloro-4-fluorobenzyl)carbamoyl)-2-azabicyclo[2.2.1]heptan-2-yl)-2-oxoethyl)-1H-indazole-3-carboxamide 2,2,2-trifluoroacetate] | 1000 to 10000 nM |
